Experimental data reported in patent US20190210996A1, “NOVEL COMPOUNDS” (GLAXOSMITHKLINE INTELLECTUAL PROPERTY DEVELOPMENT LIMITED, priority 2016, published 2019).

Assays:
GAK = target: T1, GAK (Homo sapiens, UniProt O14976); assay: Expression proteomics in THP-1 cells: GAK protein level; format: cell-based
T1 construct: endogenous in cells; host or cells: THP-1
T1 sequence (O14976 1-1311): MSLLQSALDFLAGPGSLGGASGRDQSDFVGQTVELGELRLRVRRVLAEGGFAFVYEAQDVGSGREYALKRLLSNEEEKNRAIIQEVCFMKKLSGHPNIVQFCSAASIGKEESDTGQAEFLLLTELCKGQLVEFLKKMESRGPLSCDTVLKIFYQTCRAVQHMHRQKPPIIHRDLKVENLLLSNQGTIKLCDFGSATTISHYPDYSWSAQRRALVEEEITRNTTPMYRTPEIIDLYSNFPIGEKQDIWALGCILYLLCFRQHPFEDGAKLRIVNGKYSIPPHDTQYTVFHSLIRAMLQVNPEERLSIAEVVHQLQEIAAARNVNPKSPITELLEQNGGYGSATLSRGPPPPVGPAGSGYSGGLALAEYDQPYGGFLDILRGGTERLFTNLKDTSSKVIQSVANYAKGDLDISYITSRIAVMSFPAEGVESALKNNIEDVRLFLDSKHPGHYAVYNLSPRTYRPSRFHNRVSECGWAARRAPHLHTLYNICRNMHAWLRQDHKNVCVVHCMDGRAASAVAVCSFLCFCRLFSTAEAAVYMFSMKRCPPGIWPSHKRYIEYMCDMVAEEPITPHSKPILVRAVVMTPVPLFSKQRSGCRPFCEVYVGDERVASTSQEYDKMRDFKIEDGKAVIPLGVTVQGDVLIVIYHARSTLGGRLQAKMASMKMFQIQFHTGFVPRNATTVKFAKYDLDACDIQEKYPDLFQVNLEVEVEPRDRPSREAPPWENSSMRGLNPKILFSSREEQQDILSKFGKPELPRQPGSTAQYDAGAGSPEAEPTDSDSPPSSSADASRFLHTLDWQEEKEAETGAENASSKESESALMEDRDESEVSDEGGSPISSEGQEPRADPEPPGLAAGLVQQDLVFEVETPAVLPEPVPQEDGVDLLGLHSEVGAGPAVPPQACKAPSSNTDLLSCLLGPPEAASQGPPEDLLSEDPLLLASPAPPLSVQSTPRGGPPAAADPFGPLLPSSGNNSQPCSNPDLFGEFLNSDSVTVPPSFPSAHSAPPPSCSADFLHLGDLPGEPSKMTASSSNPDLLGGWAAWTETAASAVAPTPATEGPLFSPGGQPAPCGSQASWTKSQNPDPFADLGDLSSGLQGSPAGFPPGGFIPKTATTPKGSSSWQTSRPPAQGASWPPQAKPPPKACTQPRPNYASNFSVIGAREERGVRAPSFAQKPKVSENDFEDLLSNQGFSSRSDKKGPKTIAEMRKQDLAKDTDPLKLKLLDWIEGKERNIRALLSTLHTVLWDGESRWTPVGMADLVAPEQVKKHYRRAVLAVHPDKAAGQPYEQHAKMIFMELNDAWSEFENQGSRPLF
Method: (§1) THP-1 cells were seeded at a concentration of 3×10^6 cells in T175 flasks with 60 mL growth medium (RPMI1640+10% FBS). […] of a 10× compound solution prepared in growth medium (DMSO), CEREBLON_PROTAC) was added and the cells were treated for the indicated time points (6 or 24 h) at 37° C., 5% CO2. For harvesting the cells were collected into falcon tubes on ice, centrifuged and washed twice in cold PBS (Life technologies). After the last washing step the supernatant was removed and the pellets were snap-frozen in liquid N2 and stored at −80° C. and lysed in 2% SDS for 3 min at 95° C. in a thermomixer (Thermo Fisher Scientific), followed by digestion of DNA with Benzonase at 37° C. for 1.5 h. Lysate was cleared by centrifugation an protein concentration in supernatant was determined by BCA assay.
(§2) Leukemia 25, 89-100 (2011).
(§3) Samples were dried in vacuo and resuspended in 0.05% trifluoroacetic acid in water. Of the sample, 50% was injected into an Ultimate3000 nanoRLSC (Dionex, Sunnyvale, Calif.) coupled to a Q Exactive HF (Thermo Fisher Scientific). Peptides were trapped on a 5 mm×300 μm C18 column (Pepmap100, 5 μm, 300 Å, Thermo Fisher Scientific) in water with 0.05% TFA at 60° C. Separation was performed on custom 50 cm×[…] (ID) reversed-phase columns (Reprosil) at 55° C. Gradient elution was performed from 2% acetonitrile to 40% acetonitrile in 0.1% formic acid and 3.5% DMSO over 2 hours. Samples were online injected into Q-Exactive HF mass spectrometers operating with a data-dependent top 10 method. MS spectra were acquired by using 60.000 resolution and an ion target of 3×10^6. Higher energy collisional dissociation (HCD) scans were performed with 35% NCE at 30.000 resolution (at m/z 200), and the ion target settings was set to 2×10^5 so as to avoid coalescence (Werner, T. et al. Ion Coalescence of Neutron Encoded TMT 10-Plex Reporter Ions. Anal. Chem. 86, 3594-3601 (2014).
(§4) The first search was performed with 30 parts per million mass tolerance for peptide precursors and 30 mD (HCD) mass tolerance for fragment ions followed by a final search using recalibrated data with a 10 parts per million mass tolerance for peptide precursors and 20 mD (HCD) mass tolerance for fragment ions. Carbamidomethylation of cysteine residues and TMT modification of lysine residues were set as fixed modifications and methionine oxidation, and N-terminal acetylation of proteins and TMT modification of peptide N-termini were set as variable modifications. […]
(§5) Nat Biotech 29, 255-265 (2011). this measure is referred to as ion area Savitski, M. M. et al. Delayed Fragmentation and Optimized Isolation Width Settings for Improvement of Protein Identification and Accuracy of Isobaric Mass Tag Quantification on Orbitrap-Type Mass Spectrometers. […]

AAK1 = target: T2, AAK1 (Homo sapiens, UniProt Q2M2I8); assay: Expression proteomics in THP-1 cells: AAK1 protein level; format: cell-based; details: AAK1, THP-1 cells
T2 construct: endogenous in cells; host or cells: THP-1
Method: as §1, §2, §3, §4, §5

T2 sequence (Q2M2I8 whole entry): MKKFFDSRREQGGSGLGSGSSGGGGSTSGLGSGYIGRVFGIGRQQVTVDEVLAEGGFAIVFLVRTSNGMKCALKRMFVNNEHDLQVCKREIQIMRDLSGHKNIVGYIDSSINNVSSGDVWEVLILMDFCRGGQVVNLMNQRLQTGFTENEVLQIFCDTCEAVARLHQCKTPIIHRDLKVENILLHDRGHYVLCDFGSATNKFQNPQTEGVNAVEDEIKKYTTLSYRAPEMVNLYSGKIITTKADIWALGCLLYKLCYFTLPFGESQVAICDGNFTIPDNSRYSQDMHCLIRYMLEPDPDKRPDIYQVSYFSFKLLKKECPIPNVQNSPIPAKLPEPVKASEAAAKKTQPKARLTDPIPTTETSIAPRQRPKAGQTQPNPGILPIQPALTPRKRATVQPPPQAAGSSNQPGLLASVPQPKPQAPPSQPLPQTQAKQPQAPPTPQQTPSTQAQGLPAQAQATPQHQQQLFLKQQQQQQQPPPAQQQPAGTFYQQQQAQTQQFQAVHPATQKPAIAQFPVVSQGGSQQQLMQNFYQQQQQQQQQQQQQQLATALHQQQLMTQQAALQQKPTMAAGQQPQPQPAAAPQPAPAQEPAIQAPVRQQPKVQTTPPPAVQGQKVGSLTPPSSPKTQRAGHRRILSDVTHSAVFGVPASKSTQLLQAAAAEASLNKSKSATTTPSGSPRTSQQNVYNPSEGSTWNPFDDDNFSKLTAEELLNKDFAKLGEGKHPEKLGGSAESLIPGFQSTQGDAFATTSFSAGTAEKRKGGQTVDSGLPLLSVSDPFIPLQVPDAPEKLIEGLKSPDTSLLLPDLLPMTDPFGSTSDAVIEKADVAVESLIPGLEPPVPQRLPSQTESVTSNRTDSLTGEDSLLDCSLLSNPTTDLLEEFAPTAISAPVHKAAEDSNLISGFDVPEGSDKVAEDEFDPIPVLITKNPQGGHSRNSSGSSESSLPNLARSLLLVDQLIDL

log2 rel. fc. to vehicle control (GAK; 24 h 0.1 μM, n = 1): −1.13 | log2 rel. fc. to vehicle control (GAK; 24 h 0.1 μM, n = 2): −1.35 | log2 rel. fc. to vehicle control (GAK; 24 h 1 μM, n = 1): −0.93 | log2 rel. fc. to vehicle control (GAK; 24 h 1 μM, n = 2): −1.13 | log2 rel. fc. to vehicle control (AAK1; 24 h 0.1 μM, n = 1): −2.34 | log2 rel. fc. to vehicle control (AAK1; 24 h 0.1 μM, n = 2): −2.12 | log2 rel. fc. to vehicle control (AAK1; 24 h 1 μM, n = 1): −2.42 | log2 rel. fc. to vehicle control (AAK1; 24 h 1 μM, n = 2): −2.56
Compound: CNC(=O)c1ccccc1Nc1nc(Nc2ccc(N3CCN(CCOCCOCCOCCOCC(=O)Nc4cccc5c4CN(C4CCC(=O)NC4=O)C5=O)CC3)cc2)ncc1Cl.O=CO (centres unmarked) [CEREBLON_PROTAC, 14-(4-(4-((5-Chloro-4-((2-(methylcarbamoyl)phenyl)amino)pyrimidin-2-yl)amino)phenyl)piperazin-1-yl)-N-(2-(2,6-dioxopiperidin-3-yl)-1-oxoisoindolin-4-yl)-3,6,9,12-tetraoxatetradecan-1-amide formate]
